Measurements reported in patent publication US8741899B2, “(4-chloro-2-fluoro-N-(2-fluorophenyl)-5-[(8aR)-hexahydropyrrolo-[1,2-a]pyrazin-2(1H)-ylcarbonyl]-benzenesulfonamide, and pharmaceutically acceptable salts thereof” (AbbVie Inc., priority 2009, dated 2014).

target: T1, Human Cav3.2 Channels (Homo sapiens, UniProt O95180); test: Electrophysiologic (whole-cell patch-clamp) assessment of calcium channel activity in HEK293 cells stably expressing hCav3.2; assay type: cell-based; conditions: −77 mV, geometric mean, read-out: Human Cav3.2 −77 mV IC50 (μM) GeoMean
T1 construct: expressed in transfected cells
T1 sequence (O95180 whole entry): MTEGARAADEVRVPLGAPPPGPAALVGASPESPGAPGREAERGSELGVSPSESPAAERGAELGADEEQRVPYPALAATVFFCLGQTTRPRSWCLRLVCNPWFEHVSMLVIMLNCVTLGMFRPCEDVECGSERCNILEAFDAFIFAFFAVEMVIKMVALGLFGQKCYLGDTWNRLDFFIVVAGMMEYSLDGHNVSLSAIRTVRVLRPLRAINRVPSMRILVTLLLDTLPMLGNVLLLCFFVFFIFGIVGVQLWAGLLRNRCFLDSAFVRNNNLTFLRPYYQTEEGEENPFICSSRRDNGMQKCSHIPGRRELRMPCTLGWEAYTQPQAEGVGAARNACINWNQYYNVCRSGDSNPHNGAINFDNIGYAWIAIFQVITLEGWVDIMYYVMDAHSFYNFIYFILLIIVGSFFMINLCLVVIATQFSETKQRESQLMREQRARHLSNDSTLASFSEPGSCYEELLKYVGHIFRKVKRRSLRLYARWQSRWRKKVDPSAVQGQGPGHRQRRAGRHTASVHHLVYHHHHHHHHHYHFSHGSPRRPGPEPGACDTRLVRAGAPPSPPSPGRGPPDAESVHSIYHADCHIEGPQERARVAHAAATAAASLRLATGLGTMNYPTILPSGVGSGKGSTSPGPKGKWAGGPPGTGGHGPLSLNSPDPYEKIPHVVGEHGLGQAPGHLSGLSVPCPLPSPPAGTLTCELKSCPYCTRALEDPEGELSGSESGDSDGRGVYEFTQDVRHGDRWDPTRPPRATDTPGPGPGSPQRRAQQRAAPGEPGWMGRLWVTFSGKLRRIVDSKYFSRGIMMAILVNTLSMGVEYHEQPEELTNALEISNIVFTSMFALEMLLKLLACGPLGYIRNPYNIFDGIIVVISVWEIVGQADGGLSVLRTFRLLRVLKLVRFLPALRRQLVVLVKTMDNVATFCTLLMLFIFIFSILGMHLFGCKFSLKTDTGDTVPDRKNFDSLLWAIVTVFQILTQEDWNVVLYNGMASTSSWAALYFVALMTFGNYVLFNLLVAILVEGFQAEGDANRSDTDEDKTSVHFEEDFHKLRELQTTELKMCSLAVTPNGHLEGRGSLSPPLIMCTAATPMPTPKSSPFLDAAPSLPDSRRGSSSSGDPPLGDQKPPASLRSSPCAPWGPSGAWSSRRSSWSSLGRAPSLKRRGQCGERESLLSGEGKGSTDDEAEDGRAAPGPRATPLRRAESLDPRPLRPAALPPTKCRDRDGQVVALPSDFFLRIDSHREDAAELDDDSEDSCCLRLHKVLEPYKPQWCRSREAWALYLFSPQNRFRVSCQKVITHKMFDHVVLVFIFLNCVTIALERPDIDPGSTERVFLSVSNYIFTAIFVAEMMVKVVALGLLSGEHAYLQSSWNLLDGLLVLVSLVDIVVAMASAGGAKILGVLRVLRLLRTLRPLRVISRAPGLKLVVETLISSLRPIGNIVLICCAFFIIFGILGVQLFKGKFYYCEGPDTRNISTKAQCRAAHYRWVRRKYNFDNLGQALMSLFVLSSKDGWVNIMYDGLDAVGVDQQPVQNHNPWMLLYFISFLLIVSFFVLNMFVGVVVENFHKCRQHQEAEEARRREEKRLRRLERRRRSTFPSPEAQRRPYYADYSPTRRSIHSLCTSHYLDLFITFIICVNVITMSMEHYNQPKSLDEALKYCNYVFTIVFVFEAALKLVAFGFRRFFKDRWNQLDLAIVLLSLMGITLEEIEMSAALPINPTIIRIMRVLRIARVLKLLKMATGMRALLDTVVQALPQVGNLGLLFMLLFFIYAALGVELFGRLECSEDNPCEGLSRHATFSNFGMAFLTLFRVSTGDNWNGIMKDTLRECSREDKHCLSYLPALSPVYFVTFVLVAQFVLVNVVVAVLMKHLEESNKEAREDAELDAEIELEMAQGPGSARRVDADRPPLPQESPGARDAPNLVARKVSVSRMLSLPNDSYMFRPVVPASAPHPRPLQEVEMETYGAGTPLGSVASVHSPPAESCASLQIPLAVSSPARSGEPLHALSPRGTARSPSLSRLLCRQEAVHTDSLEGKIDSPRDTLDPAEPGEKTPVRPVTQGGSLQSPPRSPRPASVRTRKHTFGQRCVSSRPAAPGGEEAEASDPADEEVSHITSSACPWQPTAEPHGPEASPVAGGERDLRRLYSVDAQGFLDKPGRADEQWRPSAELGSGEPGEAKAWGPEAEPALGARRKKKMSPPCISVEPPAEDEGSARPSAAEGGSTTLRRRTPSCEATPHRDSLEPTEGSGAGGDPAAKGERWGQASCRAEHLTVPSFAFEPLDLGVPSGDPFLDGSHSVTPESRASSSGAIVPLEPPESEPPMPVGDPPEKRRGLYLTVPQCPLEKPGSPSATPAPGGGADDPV
Description: (i) In Vitro Methods—Electrophysiologic Assessment of Calcium Channel Activity:
Patch-clamp recordings were performed using HEK293 cells stably expressing hCav3.2. Cells were plated in T175 flasks and grown at 37° C. and under 5% CO2 to approximately 50% confluency. On the day of the experiment, cells were harvested with Detachin™ cell detachment solution (Genlantis, San Diego, Calif.) and maintained in serum-free culture medium supplemented with 25 mM HEPES up to several hours prior to experiment. Whole-cell patch-clamp recordings were obtained using extracellular saline consisting of (mM): 87.5 CsCl, 40 TEA-Cl, 5 CaCl2, 1 MgCl2, 10 HEPES, 10 glucose. The pH was adjusted to 7.2 with CsOH and the osmolarity was adjusted to approximately 310 mOsm with sucrose. Intracellular solution consisted of (mM): 112 CsCl, 27 CsF, 2 NaCl, 8.2 EGTA, 10 HEPES. Prior to an experiment 4 mM Mg2ATP was added and the pH was adjusted to 7.2 with CsOH with an osmolarity of approximately 290 mOsm. A two-pulse voltage protocol was utilized to assess compound inhibition. First, cells were held with an 8 s pre-pulse at −100 mV prior to a 160 ms test pulse to −30 mV. This was followed by an 8 s pre-pulse at approximately −75 mV prior to a […]. Increasing concentrations of antagonist were applied to individual cells in a multi-addition format with 5 minutes in each test concentration. For each cell, responses were normalized to dimethyl sulfoxide vehicle control to generate concentration-response curves.

Structure (SMILES) | IC50
O=C(c1cccc(S(=O)(=O)NCC(c2ccccc2)c2ccccc2)c1)N1CCN2CCC[C@H]2C1 [Example 31, N-(2,2-diphenylethyl)-3-[(8aS)-hexahydropyrrolo[1,2-a]pyrazin-2(1H)-ylcarbonyl]benzenesulfonamide] | 3.3 µM
O=C(c1cc(S(=O)(=O)Nc2ccc(C(F)(F)F)cc2)ccc1Cl)N1CCN2CCC[C@@H]2C1 [Example 32, 4-chloro-3-[(8aR)-hexahydropyrrolo[1,2-a]pyrazin-2(1H)-ylcarbonyl]-N-[4-(trifluoromethyl)phenyl]benzenesulfonamide] | 8.4 µM
O=C(c1cccc(S(=O)(=O)NCCc2ccc(F)cc2)c1)N1CCN2CCC[C@H]2C1 [Example 33, N-[2-(4-fluorophenyl)ethyl]-3-[(8aS)-hexahydropyrrolo[1,2-a]pyrazin-2(1H)-ylcarbonyl]benzenesulfonamide] | 5.7 µM
O=C(c1ccc(Cl)c(S(=O)(=O)Nc2ccc(C(F)(F)F)cc2)c1)N1CCN2CCC[C@@H]2C1 [Example 34, 2-chloro-5-[(8aR)-hexahydropyrrolo[1,2-a]pyrazin-2(1H)-ylcarbonyl]-N-[4-(trifluoromethyl)phenyl]benzenesulfonamide] | 6.2 µM
O=C(c1cccc(S(=O)(=O)N2CCN(c3ccc(F)cc3)CC2)c1)N1CCN2CCC[C@H]2C1 [Example 35, (8aS)-2-(3-{[4-(4-fluorophenyl)piperazin-1-yl]sulfonyl}benzoyl)octahydropyrrolo[1,2-a]pyrazine] | 4.8 µM
O=C(c1cccc(S(=O)(=O)Nc2ccccc2-c2ccccc2)c1)N1CCN2CCC[C@H]2C1 [Example 36, N-1,1′-biphenyl-2-yl-3-[(8aS)-hexahydropyrrolo[1,2-a]pyrazin-2(1H)-ylcarbonyl]benzenesulfonamide] | 4.7 µM
O=C(c1cccc(S(=O)(=O)Nc2cccc(C(F)(F)F)c2)c1)N1CCN2CCCCC2C1 (centres unmarked) [Example 38, 3-(octahydro-2H-pyrido[1,2-a]pyrazin-2-ylcarbonyl)-N-[3-(trifluoromethyl)phenyl]benzenesulfonamide] | 4.6 µM
O=C(c1cccc(S(=O)(=O)Nc2ccccc2F)c1)N1CCN2CCCCC2C1 (centres unmarked) [Example 39, N-(2-fluorophenyl)-3-(octahydro-2H-pyrido[1,2-a]pyrazin-2-ylcarbonyl)benzenesulfonamide] | 4.1 µM
O=C(c1cccc(S(=O)(=O)Nc2ccc(F)cc2)c1)N1CCC(N2CCCC2)CC1 [Example 40, N-(4-fluorophenyl)-3-[(4-pyrrolidin-1-ylpiperidin-1-yl)carbonyl]benzenesulfonamide] | 4.1 µM
O=C(c1cccc(S(=O)(=O)Nc2ccccc2)c1)N1CCC(N2CCCC2)CC1 [Example 41, N-phenyl-3-[(4-pyrrolidin-1-ylpiperidin-1-yl)carbonyl]benzenesulfonamide] | 5 µM
O=C(c1cccc(S(=O)(=O)Nc2ccc(C(F)(F)F)cc2)c1)N1CCC(N2CCCC2)CC1 [Example 42, 3-[(4-pyrrolidin-1-ylpiperidin-1-yl)carbonyl]-N-[4-(trifluoromethyl)phenyl]benzenesulfonamide] | 5.8 µM
O=C(c1cccc(S(=O)(=O)Nc2cccc(C(F)(F)F)c2)c1)N1CCC(N2CCCC2)CC1 [Example 43, 3-[(4-pyrrolidin-1-ylpiperidin-1-yl)carbonyl]-N-[3-(trifluoromethyl)phenyl]benzenesulfonamide] | 4.9 µM
O=C(c1cccc(S(=O)(=O)Nc2cccc(F)c2)c1)N1CCC(N2CCCC2)CC1 [Example 44, N-(3-fluorophenyl)-3-[(4-pyrrolidin-1-ylpiperidin-1-yl)carbonyl]benzenesulfonamide] | 4.9 µM
O=C(c1cccc(S(=O)(=O)Nc2ccccc2F)c1)N1CCC(N2CCCC2)CC1 [Example 45, N-(2-fluorophenyl)-3-[(4-pyrrolidin-1-ylpiperidin-1-yl)carbonyl]benzenesulfonamide] | > 10 µM
O=C(c1cccc(S(=O)(=O)Nc2ccc(F)cc2)c1)N1CCC(N2CCCCC2)CC1 [Example 46, 3-(1,4′-bipiperidin-1′-ylcarbonyl)-N-(4-fluorophenyl)benzenesulfonamide] | 1.8 µM
O=C(c1cccc(S(=O)(=O)Nc2ccccc2F)c1)N1CCC(N2CCCCC2)CC1 [Example 47, 3-(1,4′-bipiperidin-1′-ylcarbonyl)-N-(2-fluorophenyl)benzenesulfonamide] | 3.8 µM
O=C(c1cccc(S(=O)(=O)Nc2cccc(F)c2)c1)N1CCC(N2CCCCC2)CC1 [Example 48, 3-(1,4′-bipiperidin-1′-ylcarbonyl)-N-(3-fluorophenyl)benzenesulfonamide] | > 10 µM
O=C(c1cccc(S(=O)(=O)Nc2ccc(C(F)(F)F)cc2)c1)N1CCC(N2CCCCC2)CC1 [Example 49, 3-(1,4′-bipiperidin-1′-ylcarbonyl)-N-[4-(trifluoromethyl)phenyl]benzenesulfonamide] | 1.3 µM
O=C(c1cccc(S(=O)(=O)N2CCN3CCC[C@@H]3C2)c1)N1CCN(C(c2ccc(F)cc2)c2ccc(F)cc2)CC1 [Example 50, (8aR)-2-{[3-({4-[bis(4-fluorophenyl)methyl]piperazin-1-yl}carbonyl)phenyl]sulfonyl}octahydropyrrolo[1,2-a]pyrazine] | 0.6 µM
O=C(c1cccc(S(=O)(=O)N2CCN3CCC[C@H]3C2)c1)N1CCN(C(c2ccc(F)cc2)c2ccc(F)cc2)CC1 [Example 51, (8aS)-2-{[3-({4-[bis(4-fluorophenyl)methyl]piperazin-1-yl}carbonyl)phenyl]sulfonyl}octahydropyrrolo[1,2-a]pyrazine] | 0.9 µM
O=C(c1cccc(S(=O)(=O)N2CCN3CCC[C@@H]3C2)c1)N1CCN(C(c2ccccc2)c2ccccc2)CC1 [Example 52, (8aR)-2-({3-[(4-benzhydrylpiperazin-1-yl)carbonyl]phenyl}sulfonyl)octahydropyrrolo[1,2-a]pyrazine] | 0.6 µM
O=C(NCC(c1ccccc1)c1ccccc1)c1cccc(S(=O)(=O)N2CCN3CCC[C@H]3C2)c1 [Example 53, N-(2,2-diphenylethyl)-3-[(8aS)-hexahydropyrrolo[1,2-a]pyrazin-2(1H)-ylsulfonyl]benzamide] | 0.5 µM
O=C(c1cccc(S(=O)(=O)N2CCN3CCC[C@H]3C2)c1)N1CCN(C(c2ccccc2)c2ccccc2)CC1 [Example 54, (8aS)-2-({3-[(4-benzhydrylpiperazin-1-yl)carbonyl]phenyl}sulfonyl)octahydropyrrolo[1,2-a]pyrazine] | 1.2 µM
O=C(NCCC(c1ccccc1)c1ccccc1)c1cccc(S(=O)(=O)N2CCN3CCC[C@H]3C2)c1 [Example 55, N-(3,3-diphenylpropyl)-3-[(8aS)-hexahydropyrrolo[1,2-a]pyrazin-2(1H)-ylsulfonyl]benzamide] | 1.8 µM
O=C(NCCc1ccc(F)cc1)c1cccc(S(=O)(=O)N2CCN3CCC[C@H]3C2)c1 [Example 56, N-[2-(4-fluorophenyl)ethyl]-3-[(8aS)-hexahydropyrrolo[1,2-a]pyrazin-2(1H)-ylsulfonyl]benzamide] | 4.1 µM
O=C(c1cc(S(=O)(=O)Nc2ccccc2F)c(F)cc1Cl)N1CCN2CCC[C@H]2C1 [Example 58, 4-chloro-2-fluoro-N-(2-fluorophenyl)-5-[(8aS)-hexahydropyrrolo[1,2-a]pyrazin-2(1H)-ylcarbonyl]benzenesulfonamide] | 4.6 µM
